In patent US20180207094A1, “IMPROVED TOPICAL KETOPROFEN FORMULATIONS” (Elliptical Therapeutics, LLC, priority 2015, published 2018):

Experiments:
[1] = reported; cited from earlier work
[2] = system: New Zealand rabbits; conditions: rabbit, in vivo

SMILES: C[C@H](C(=O)O)c1cccc(C(=O)c2ccccc2)c1 (single isomer, unassigned) [S-enantiomer]
- potency relative to the racemate [1]: approximately twice as potent as the racemate

SMILES: CCCCCCCCCCCCOS(=O)(=O)[O-].[Na+] [SDS 5%, sodium dodecyl sulfate]
- Overall Edema Score [2]: 0.60
- Overall Erythema Score [2]: 0.20

SMILES: C[C@@H](C(=O)O)c1cccc(C(=O)c2ccccc2)c1 (single isomer, unassigned) [R-enantiomer]
- anti-inflammatory and antipyretic activities [1]: little or no
